Columns and labels:
Type in all cases: cell-based
TPM3-TRKA = biological target: T1, TPM3-TRKA (Homo sapiens, UniProt P04629); assay: Engineered Ba/F3 cell proliferation inhibition (MTS), TPM3-TRKA; conditions: 72 h
T1 construct: TPM3 (tropomyosin alpha-3, P06753) fusion partner; expressed in transfected cells; host or cells: Ba/F3; the other entry of the earlier key: TPM3 (P06753, Tropomyosin alpha-3 chain)
From the text: (§1) MTS testing kit was purchased from Promega (Madison, Wis., USA). The RPMI-1640, Fetal bovine serum and Penicillin-Streptomycin were purchased from Gibco (San Francisco, Calif., USA). Dimethyl sulfoxide (DMSO) and Puromycin were purchased from Sigma (St. Louis., Mo., USA). Mouse interleukin-3 (IL-3) was purchased from Cell signaling Technology (Boston, Mass., USA).
(§2) To investigate whether a compound is able to inhibit the activity of TRK fusion mutation in cells, a mechanism-based assay using engineered Ba/F3 cell lines stably overexpressing oncogenic rearrangement or gene mutation of TRK (TPM3-TRKA, TPM3-TRKA-G595R, AFAP1-TRKB, ETV6-TRKC and ETV6-TRKC-G623R) were developed. In this assay, inhibition of TRK fusion mutation was detected by the cell proliferation inhibition of engineered Ba/F3 cells. Engineered Ba/F3 cells were cultured in culture flasks to 40-80% confluence in RPMI-1640 supplemented with 10% fetal bovine serum, 2 ug/mL puromycin. Cells were collected and plated onto 96-well plates at desired cell density (Ba/F3-TPM3-TRKA: 3×10^4/mL, Ba/F3-TPM3-TRKA-G595R: 1×10^5/mL, Ba/F3-AFAP1-TRKB: 1×10^5/mL, Ba/F3-ETV6-TRKC: 3×10^4/mL, Ba/F3-ETV6-TRKC-G623R: 3×10^4/mL). Plates were incubated at 37° C., with 5% CO2 for 4 h. Compounds were then added to the plates with the final compound concentrations of 10000, 3333, 1111, […], 123, 41.2, 13.7, 4.6 and 1.5 nM. Plates were incubated at 37° C., with 5% CO2 for 72 h. A mixture of 20 μl MTS/100 μl medium were added to each well and the plates were incubated at 37° C., with 5% CO2 for exactly 2 h. The reaction was stopped by adding 25 μl of 10% SDS per well. The absorbance was measured at 490 nm and 650 nm (reference wavelength). IC50 was calculated using GraphPad Prism 5.0 software.

ETV6-TRKC = biological target: T2, ETV6-TRKC (Homo sapiens, UniProt Q16288); assay: Engineered Ba/F3 cell proliferation inhibition (MTS), ETV6-TRKC; conditions: 72 h
T2 construct: fused on or other part: P41212 (Transcription factor ETV6)
From the text: as §1, §2

ETV6-TRKC-G623R = biological target: T3, ETV6-TRKC-G623R (Homo sapiens, UniProt Q16288, G623R); assay: Engineered Ba/F3 cell proliferation inhibition (MTS), ETV6-TRKC-G623R; conditions: 72 h
T3 construct: fused on or other part: P41212 (Transcription factor ETV6)
Method in brief: (§3)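 Ba/F3 cells stably expressing the TRK fusion, grown with puromycin, were plated 4 h then treated 72 h at 37 °C with compound 1.5–10000 nM final. Proliferation measured by MTS (2 h), absorbance at 490 nm with 650 nm reference; IC50 derived by curve fit.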

KM12 cells = KM12 cells proliferation inhibition (MTS), mechanism-based assay for TRK; conditions: Homo sapiens, KM12, 72 h
Method in brief: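 KM12 cells (1000 cells/well, RPMI-1640 plus 10% FBS) were treated with compounds at 1.5–10000 nM final for 72 h at 37 °C. Viability was measured by MTS for 2 h, stopped with SDS, with absorbance read at 490 nm (650 nm reference). IC50 was calculated from the readings.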

TPM3-TRKA-G595R = biological target: T4, TPM3-TRKA-G595R (Homo sapiens, UniProt P04629, G595R); assay: Engineered Ba/F3 cell proliferation inhibition (MTS), TPM3-TRKA-G595R; conditions: 72 h
T4 construct: TPM3 (tropomyosin alpha-3, P06753) fusion partner; expressed in transfected cells; host or cells: Ba/F3; the other entry of the earlier key: TPM3 (P06753, Tropomyosin alpha-3 chain)
Method in brief: as §3

T1 sequence (P04629 510-796 limits assumed): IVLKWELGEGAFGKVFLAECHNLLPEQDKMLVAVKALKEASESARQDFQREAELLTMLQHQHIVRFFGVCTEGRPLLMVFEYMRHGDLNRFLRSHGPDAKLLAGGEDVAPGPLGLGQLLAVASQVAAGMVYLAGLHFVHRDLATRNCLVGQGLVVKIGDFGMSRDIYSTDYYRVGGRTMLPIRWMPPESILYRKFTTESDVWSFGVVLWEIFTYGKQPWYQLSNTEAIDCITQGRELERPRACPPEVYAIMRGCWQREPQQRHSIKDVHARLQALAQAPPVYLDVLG
T2 sequence (Q16288 whole entry, the tested form may be a part): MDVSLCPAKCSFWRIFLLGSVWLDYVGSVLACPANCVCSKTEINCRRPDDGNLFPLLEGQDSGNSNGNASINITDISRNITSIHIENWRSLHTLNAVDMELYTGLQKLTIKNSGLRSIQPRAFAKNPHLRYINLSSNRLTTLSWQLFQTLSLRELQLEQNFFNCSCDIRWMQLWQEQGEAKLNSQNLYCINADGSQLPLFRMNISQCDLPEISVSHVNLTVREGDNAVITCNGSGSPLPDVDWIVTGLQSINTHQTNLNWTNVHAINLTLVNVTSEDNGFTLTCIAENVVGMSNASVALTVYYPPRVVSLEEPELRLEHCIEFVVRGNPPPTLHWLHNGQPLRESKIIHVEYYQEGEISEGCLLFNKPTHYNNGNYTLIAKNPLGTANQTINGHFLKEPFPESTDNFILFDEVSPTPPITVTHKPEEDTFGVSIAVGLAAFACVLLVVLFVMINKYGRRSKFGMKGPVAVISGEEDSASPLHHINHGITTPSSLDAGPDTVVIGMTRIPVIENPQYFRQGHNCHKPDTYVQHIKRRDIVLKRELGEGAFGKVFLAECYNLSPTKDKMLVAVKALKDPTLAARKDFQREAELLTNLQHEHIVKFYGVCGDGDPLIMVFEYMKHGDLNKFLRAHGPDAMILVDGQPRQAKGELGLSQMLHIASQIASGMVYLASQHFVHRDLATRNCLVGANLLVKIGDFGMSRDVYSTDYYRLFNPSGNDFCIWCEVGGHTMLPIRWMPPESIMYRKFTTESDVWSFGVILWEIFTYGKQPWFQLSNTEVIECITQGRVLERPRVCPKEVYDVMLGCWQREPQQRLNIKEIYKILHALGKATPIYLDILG
T4 sequence (P04629 510-796 G595R limits assumed): as the sequence (P04629 510-796 limits assumed) above, with G86R counted along it
T3 sequence (Q16288 whole entry G623R, the tested form may be a part): as the sequence (Q16288 whole entry, the tested form may be a part) above, with G623R counted along it

Row | IC50 (TPM3-TRKA) | IC50 (ETV6-TRKC) | IC50 (ETV6-TRKC-G623R) | IC50 (TPM3-TRKA-G595R) | Compound | IC50 (KM12 cells)
1 | 3 nM | 1 nM | 39 nM | 67 nM | C[C@@H]1COc2ncc(F)cc2C2(CC2)Nc2ccn3ncc(c3n2)C(=O)N1 [Example 8, (R,3′E,4′E)-5′-fluoro-7′-methylspiro[cyclopropane-1,3′-5-oxa-2,8-diaza-1(5,3)-pyrazolo[1,5-a]pyrimidina-4(3,2)-pyridinacyclononaphan]-9′-one] | 4 nM
2 | 1 nM | 1 nM | 1 nM | 1 nM | C[C@@H]1COc2ncc(F)cc2[C@@]23C[C@@H]2CCN3c2ccn3ncc(c3n2)C(=O)N1 [Example 19, (1^3E,1^4E,2^1R,2^5S,6R)-3^5-fluoro-6-methyl-4-oxa-2^2,7-diaza-1(5,3)pyrazolo[1,5-a]pyrimidina-3(3,2)-pyridina-2(2,1)-bicyclo[3.1.0]hexanacyclooctaphan-8-one] | 1 nM
3 | 1 nM | 1 nM | 2 nM | 1 nM | O=C1NCCOc2ccc(F)cc2[C@@]23C[C@@H]2CCN3c2ccn3ncc1c3n2 [Example 16, (1^3E,1^4E,2^1R,2^5S)-3^5-fluoro-4-oxa-2^2,7-diaza-1(5,3)-pyrazolo[1,5-a]pyrimidina-2(2,1)-bicyclo[3.1.0]Hexana-3(1,2)-benzeneacyclooctaphan-8-one] | 1 nM

From US11555042B2, “Macrocyclic compounds as TRK kinases inhibitors” (FOCHON BIOSCIENCES, LTD., priority 2018, dated 2023)
